target: MYT1 protein (Homo sapiens (Human), UniProt Q99640); assay: Test for binding to ATP binding site of MYT1 (Kinase Tracer 178 / Eu-Anti-GST antibody TR-FRET); conditions: ATP binding site of MYT1, 30 minutes at room temperature
Sequence (Q99640 whole entry): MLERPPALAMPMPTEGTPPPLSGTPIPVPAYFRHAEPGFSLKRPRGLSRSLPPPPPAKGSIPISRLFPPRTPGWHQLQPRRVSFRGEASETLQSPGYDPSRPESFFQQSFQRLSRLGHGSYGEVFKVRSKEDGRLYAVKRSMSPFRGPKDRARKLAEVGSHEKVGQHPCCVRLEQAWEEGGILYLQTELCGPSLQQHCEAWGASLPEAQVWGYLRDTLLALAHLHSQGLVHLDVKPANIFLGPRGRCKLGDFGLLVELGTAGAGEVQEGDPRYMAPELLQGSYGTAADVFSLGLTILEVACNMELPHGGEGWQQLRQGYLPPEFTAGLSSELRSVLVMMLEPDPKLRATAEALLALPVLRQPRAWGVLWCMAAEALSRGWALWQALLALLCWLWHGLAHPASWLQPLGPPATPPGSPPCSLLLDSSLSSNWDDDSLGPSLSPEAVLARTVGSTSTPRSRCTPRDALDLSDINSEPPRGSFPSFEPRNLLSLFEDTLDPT

| SMILES | IC50 |
| --- | --- |
| COc1cc2c(-c3ccc(Cl)c4[nH]ncc34)c(N)c(=O)[nH]c2c2cccnc12 [Compound C74, 3-Amino-4-(7-chloro-1H-indazol-4-yl)-6-methoxy-1H-1,7-phenanthrolin-2-one] | 0.83 nM |
| Nc1c(-c2ccc(Cl)c3[nH]ncc23)c2cc(Cl)c3ncccc3c2[nH]c1=O [Compound C77, 3-Amino-6-chloro-4-(7-chloro-1H-indazol-4-yl)-1H-1,7-phenanthrolin-2-one] | 8.5 nM |
| Nc1c(-c2cncc3[nH]ncc23)c2cc(Br)c3ncccc3c2[nH]c1=O [Compound C80, 3-Amino-6-bromo-4-(1H-pyrazolo[3,4-c]pyridin-4-yl)-1H-1,7-phenanthrolin-2-one] | 100 nM |
| Nc1c(-c2ccnc3[nH]ncc23)c2cc(C3CC3)c3ncccc3c2[nH]c1=O [Compound C82, 3-Amino-6-cyclopropyl-4-(1H-pyrazolo[3,4-b]pyridin-4-yl)-1H-1,7-phenanthrolin-2-one] | 11 nM |
| N#Cc1cc2c(-c3ccc(F)c4[nH]ncc34)c(N)c(=O)[nH]c2c2cccnc12 [Compound C87, 3-Amino-4-(7-fluoro-1H-indazol-4-yl)-2-oxo-1H-1,7-phenanthroline-6-carbonitrile] | 18 nM |
| C=Cc1cc2c(-c3ccc(F)c4[nH]ncc34)c(N)c(=O)[nH]c2c2cccnc12 [Compound C89, 3-Amino-6-ethenyl-4-(7-fluoro-1H-indazol-4-yl)-1H-1,7-phenanthrolin-2-one] | 3.9 nM |
| CN(C)C(=O)Cc1cc2c(-c3ccc(F)c4[nH]ncc34)c(N)c(=O)[nH]c2c2cccnc12 [Compound C93, 2-[3-Amino-4-(7-fluoro-1H-indazol-4-yl)-2-oxo-1H-1,7-phenanthrolin-6-yl]-N,N-dimethylacetamide] | 32 nM |
| Nc1c(-c2ccc(F)c3[nH]ncc23)c2cc(C3=COCC3)c3ncccc3c2[nH]c1=O [Compound C94, 3-Amino-6-(2,3-dihydrofuran-4-yl)-4-(7-fluoro-1H-indazol-4-yl)-1H-1,7-phenanthrolin-2-one] | 8.4 nM |
| Nc1c(-c2ccc(F)c3[nH]ncc23)c2cc(C3CCCO3)c3ncccc3c2[nH]c1=O (centres unmarked) [Compound C96, 3-Amino-4-(7-fluoro-1H-indazol-4-yl)-6-(oxolan-2-yl)-1H-1,7-phenanthrolin-2-one] | 5.3 nM |
| CC(C)(C)OC(=O)N1CC(c2cc3c(-c4ccc(F)c5[nH]ncc45)c(N)c(=O)[nH]c3c3cccnc23)C1 [Compound C97, tert-Butyl 3-[3-amino-4-(7-fluoro-1H-indazol-4-yl)-2-oxo-1H-1,7-phenanthrolin-6-yl]azetidine-1-carboxylate] | 22 nM |
| CC(C)(C)OC(=O)N1CCC(c2cc3c(-c4ccc(F)c5[nH]ncc45)c(N)c(=O)[nH]c3c3cccnc23)CC1 [Compound C99, tert-Butyl 4-[3-amino-4-(7-fluoro-1H-indazol-4-yl)-2-oxo-1H-1,7-phenanthrolin-6-yl]piperidine-1-carboxylate] | 21 nM |
| C=C(C)c1cc2c(-c3ccc(F)c4[nH]ncc34)c(N)c(=O)[nH]c2c2cccnc12 [Compound C103, 3-Amino-4-(7-fluoro-1H-indazol-4-yl)-6-prop-1-en-2-yl-1H-1,7-phenanthrolin-2-one] | 4.3 nM |
| CCCc1cc2c(-c3ccc(F)c4[nH]ncc34)c(N)c(=O)[nH]c2c2cccnc12 [Compound C106, 3-Amino-4-(7-fluoro-1H-indazol-4-yl)-6-propyl-1H-1,7-phenanthrolin-2-one] | 2.7 nM |
| CC(C)CCc1cc2c(-c3ccc(F)c4[nH]ncc34)c(N)c(=O)[nH]c2c2cccnc12 [Compound C107, 3-Amino-4-(7-fluoro-1H-indazol-4-yl)-6-(3-methylbutyl)-1H-1,7-phenanthrolin-2-one] | 8.1 nM |
| CCC(C)c1cc2c(-c3ccc(F)c4[nH]ncc34)c(N)c(=O)[nH]c2c2cccnc12 (centres unmarked) [Compound C109, 3-Amino-6-butan-2-yl-4-(7-fluoro-1H-indazol-4-yl)-1H-1,7-phenanthrolin-2-one] | 4.6 nM |
| Nc1c(-c2ccc(F)c3[nH]ncc23)c2cc(I)c3ncccc3c2[nH]c1=O [Compound C111, 3-Amino-4-(7-fluoro-1H-indazol-4-yl)-6-iodo-1H-1,7-phenanthrolin-2-one] | 4.9 nM |
| Nc1c(-c2ccc(F)c3[nH]ncc23)c2cc(N3CCCC3)c3ncccc3c2[nH]c1=O [Compound C113, 3-Amino-4-(7-fluoro-1H-indazol-4-yl)-6-pyrrolidin-1-yl-1H-1,7-phenanthrolin-2-one] | 4.6 nM |
| Nc1c(-c2ccc(F)c3[nH]ncc23)c2cc(N3CCC(O)C3)c3ncccc3c2[nH]c1=O (centres unmarked) [Compound C116, 3-Amino-4-(7-fluoro-1H-indazol-4-yl)-6-(3-hydroxypyrrolidin-1-yl)-1H-1,7-phenanthrolin-2-one] | 2.7 nM |
| Nc1c(-c2ccc(F)c3[nH]ncc23)c2cc(N3CCC(N4CCOCC4)CC3)c3ncccc3c2[nH]c1=O [Compound C117, 3-Amino-4-(7-fluoro-1H-indazol-4-yl)-6-(4-morpholin-4-ylpiperidin-1-yl)-1H-1,7-one] | 3.5 nM |
| Nc1c(-c2ccc(F)c3[nH]ncc23)c2cc(N3CC4(COC4)C3)c3ncccc3c2[nH]c1=O [Compound C118, 3-Amino-4-(7-fluoro-1H-indazol-4-yl)-6-(2-oxa-6-azaspiro[3,3]heptan-6-yl)-1H-1,7-one] | 2.3 nM |
| Nc1c(-c2ccc(F)c3[nH]ncc23)c2cc(N3CCC(N4CCCC4)CC3)c3ncccc3c2[nH]c1=O [Compound C119, 3-Amino-4-(7-fluoro-1H-indazol-4-yl)-6-(4-pyrrolidin-1-ylpiperidin-1-yl)-1H-1,7-phenanthrolin-2-one] | 2.2 nM |
| Nc1c(-c2ccc(F)c3[nH]ncc23)c2cc(N3CCC4(COC4)C3)c3ncccc3c2[nH]c1=O [Compound C120, 3-Amino-4-(7-fluoro-1H-indazol-4-yl)-6-(2-oxa-7-azaspiro[3.4]octan-7-yl)-1H-1,7-one] | 2.9 nM |
| Nc1c(-c2ccc(F)c3[nH]ncc23)c2cc(N3CC(F)(F)C3)c3ncccc3c2[nH]c1=O [Compound C123, 3-Amino-6-(3,3-difluoroazetidin-1-yl)-4-(7-fluoro-1H-indazol-4-yl)-1H-1,7-phenanthrolin-2-one] | 3.4 nM |

Second part, the compound after the results:

| IC50 | SMILES |
| --- | --- |
| 6.2 nM | Nc1c(-c2cc(F)c(F)c3[nH]ncc23)c2cc(OC(F)(F)F)c3ncccc3c2[nH]c1=O [Compound C72, 3-Amino-4-(6,7-difluoro-1H-indazol-4-yl)-6-(trifluoromethoxy)-1H-1,7-phenanthrolin-2-one] |
| < 14 nM | Nc1c(-c2ccc(Cl)c3[nH]ncc23)c2cc(Br)c3ncccc3c2[nH]c1=O [Compound C73, 3-Amino-6-bromo-4-(7-chloro-1H-indazol-4-yl)-1H-1,7-phenanthrolin-2-one] |
| 1.9 nM | Nc1c(-c2cc(F)c(Cl)c3[nH]ncc23)c2cc(Br)c3ncccc3c2[nH]c1=O [Compound C75, 3-Amino-6-bromo-4-(7-chloro-6-fluoro-1H-indazol-4-yl)-1H-1,7-phenanthrolin-2-one] |
| 49 nM | Nc1c(-c2ccnc3[nH]ncc23)c2cc(Br)c3ncccc3c2[nH]c1=O [Compound C81, 3-Amino-6-bromo-4-(1H-pyrazolo[3,4-b]pyridin-4-yl)-1H-1,7-phenanthrolin-2-one] |
| 8.7 nM | N#CC1(c2cc3c(-c4ccc(F)c5[nH]ncc45)c(N)c(=O)[nH]c3c3cccnc23)CC1 [Compound C95, 1-[3-Amino-4-(7-fluoro-1H-indazol-4-yl)-2-oxo-1H-1,7-phenanthrolin-6-yl]cyclopropane-1-carbonitrile] |
| 3.4 nM | CC(C)c1cc2c(-c3ccc(F)c4[nH]ncc34)c(N)c(=O)[nH]c2c2cccnc12 [Compound C104, 3-Amino-4-(7-fluoro-1H-indazol-4-yl)-6-propan-2-yl-1H-1,7-phenanthrolin-2-one] |
| 5 nM | CC(C)Cc1cc2c(-c3ccc(F)c4[nH]ncc34)c(N)c(=O)[nH]c2c2cccnc12 [Compound C105, 3-Amino-4-(7-fluoro-1H-indazol-4-yl)-6-(2-methylpropyl)-1H-1,7-phenanthrolin-2-one] |
| 37 nM | CCC(CC)c1cc2c(-c3ccc(F)c4[nH]ncc34)c(N)c(=O)[nH]c2c2cccnc12 [Compound C108, 3-Amino-4-(7-fluoro-1H-indazol-4-yl)-6-pentan-3-yl-1H-1,7-phenanthrolin-2-one] |
| 14 nM | CP(C)(=O)c1cc2c(-c3ccc(F)c4[nH]ncc34)c(N)c(=O)[nH]c2c2cccnc12 [Compound C110, 3-Amino-6-dimethylphosphoryl-4-(7-fluoro-1H-indazol-4-yl)-1H-1,7-phenanthrolin-2-one] |
| 78 nM | Nc1c(-c2ccc(F)c3[nH]ncc23)c2cc(N3CCCC3=O)c3ncccc3c2[nH]c1=O [Compound C112, 3-Amino-4-(7-fluoro-1H-indazol-4-yl)-6-(2-oxopyrrolidin-1-yl)-1H-1,7-phenanthrolin-2-one] |
| 2 nM | CN1CCN(c2cc3c(-c4ccc(F)c5[nH]ncc45)c(N)c(=O)[nH]c3c3cccnc23)CC1 [Compound C114, 3-Amino-4-(7-fluoro-1H-indazol-4-yl)-6-(4-methylpiperazin-1-yl)-1H-1,7-phenanthrolin-2-one] |
| 3.7 nM | Nc1c(-c2ccc(F)c3[nH]ncc23)c2cc(N3CCC(F)(F)C3)c3ncccc3c2[nH]c1=O [Compound C115, 3-Amino-6-(3,3-difluoropyrrolidin-1-yl)-4-(7-fluoro-1H-indazol-4-yl)-1H-1,7-phenanthrolin-2-one] |
| 3 nM | Nc1c(-c2ccc(F)c3[nH]ncc23)c2cc(N3CCC3)c3ncccc3c2[nH]c1=O [Compound C121, 3-Amino-6-(azetidin-1-yl)-4-(7-fluoro-1H-indazol-4-yl)-1H-1,7-phenanthrolin-2-one] |
| 4.5 nM | Nc1c(-c2ccc(F)c3[nH]ncc23)c2cc(N3CCOCC3)c3ncccc3c2[nH]c1=O [Compound C122, 3-Amino-4-(7-fluoro-1H-indazol-4-yl)-6-morpholin-4-yl-1H-1,7-phenanthrolin-2-one 2,2,2-trifluoroacetate] |
| 3.4 nM | Nc1c(-c2ccc(F)c3[nH]ncc23)c2cc(N3CCS(=O)(=O)CC3)c3ncccc3c2[nH]c1=O [Compound C124, 3-Amino-6-(1,1-dioxo-1,4-thiazinan-4-yl)-4-(7-fluoro-1H-indazol-4-yl)-1H-1,7-phenanthrolin-2-one] |

Reference: US20260062412A1, “NITROGEN-CONTAINING HETEROCYCLIC COMPOUND HAVING MYT1 INHIBITORY ACTIVITY” (CHUGAI SEIYAKU KABUSHIKI KAISHA, priority 2023, published 2026)
